# Reference: patent publication US11180459B2, “Bacterial efflux pump inhibitors” (RUTGERS, THE STATE UNIVERSITY OF NEW JERSEY, priority 2017, dated 2021)
# Structures can show the parent of a compound that is named as a salt.
# How the values were obtained:
# [1] = test system: Escherichia coli ATCC 25922; assay: Standard EPI assay: clarithromycin MIC with EPI; type: cell-based; details: clarithromycin as antibiotic, E. coli ATCC 25922
# Description: (§1) MIC assays were conducted in accordance with Clinical and Laboratory Standards Institute (CLSI) guidelines for broth microdilution.
# (§2) The EPI assay for the purposes of these studies represents a MIC assay in which the MIC of the antibiotic against the bacteria is tested in the presence of an experimental efflux pump inhibitor (EPI). The highest concentration of the EPI present in the assay typically is ½ of the intrinsic MIC of the compound. If the intrinsic MIC of the EPI is greater than 100 μg/mL, the EPI assay was tested with 50 μg/mL. Using serial dilutions of the EPI, its enhancement of antibiotic activity was then evaluated. The relative EPI activity was decided by comparing the MIC of the antibiotic in the presence of the EPI compound with the intrinsic MIC of the antibiotic alone. For the evaluation of the efficacy of an EPI against bacteria that were pre-exposed to an antibiotic, the inoculum of bacteria that used was developed from a bacterial culture isolated as a single colony following exposure at ½ the MIIC of the antibiotic (so as to induce efflux pump expression), was to be used in combination with the EPI.
# (§3) In our standard EPI assay, the MIC of the test antibiotic is determined in the absence and presence of sub-inhibitory concentrations of the EPI. Initially, the sub-inhibitory concentration used was ½×MIC of the EPI. […] The MIC of levofloxacin against P. aeruginosa ATCC 27853 in the absence of EPI is 1 μg/mL. […] Similar methodology was employed to examine the synergy with Escherichia coli ATCC 25922 in the presence of varied concentrations of these EPIs using clarithromycin as the antibiotic.
# [2] = test system: Pseudomonas aeruginosa ATCC 27853; assay: Standard EPI assay: levofloxacin MIC with EPI; type: cell-based; details: levofloxacin as antibiotic, P. aeruginosa ATCC 27853
# Description: as §1, §2, §3
SMILES,Enhanced Activity in E. coli (fold enhancement of antibiotic activity / EPI concentration) ([1]; EPI at 50 (μg)),Enhanced Activity in P. aeruginosa (fold enhancement of antibiotic activity / EPI concentration) ([2]; EPI at 12.5 (μg)),other results
"Cn1c(C(=O)NC[C@@H](N)CCCN)nc2cc(-c3ccc(F)cc3)ccc21 [Example 5, (S)—N-(2,5-diaminopentyl)-5-(4-fluorophenyl)-1-methyl-1H-benzo[d]imidazole-2-carboxamide Dihydrochloride]",64×/50,–,–
"Cl.Cl.NCCC[C@H](N)CNC(=O)c1nc2cc(-c3ccc(F)cc3)c(-c3ccc(F)cc3)cc2n1Cc1ccccc1 [Example 31, (S)-1-benzyl-N-(2,5-diaminopentyl)-5,6-bis(4-fluorophenyl)-1H-benzo[d]imidazole-2-carboxamide Hydrogen Chloride Salt]",–,–,Enhanced Activity in E. coli (fold enhancement of antibiotic activity / EPI concentration) ([1]; EPI at 6.25 (μg)): 8×/6.25 μg
"COc1ccc(-c2ccc3[nH]c(C(=O)NC[C@@H](N)CCCN)nc3c2)cc1 [Example 8, (S)—N-(2,5-diaminopentyl)-5-(4-methoxyphenyl)-1H-benzo[d]imidazole-2-carboxamide Dihydrochloride]",2×/50,2×/12.5,–
"NCCC[C@H](N)CNC(=O)Cc1nc2ccc(-c3ccc(F)cc3)cc2[nH]1 [Example 10, (S)—N-(2,5-diaminopentyl)-2-(6-(4-fluorophenyl)-1H-benzo[d]imidazol-2-yl)acetamide Dihydrochloride]",1×/50,–,–
"NCCC[C@H](N)CNC(=O)c1nc2cc(-c3ccc(F)cc3)cc(-c3ccc(F)cc3)c2[nH]1 [Example 2, (S)—N-(2,5-diaminopentyl)-5,7-bis(4-fluorophenyl)-1H-benzo[d]imidazole-2-carboxamide Dihydrochloride]",–,1×/12.5,–
"NCCC[C@H](N)c1nc2cc(-c3ccc(F)cc3)ccc2[nH]1 [Example 9, (S)-1-(5-(4-fluorophenyl)-1H-benzo[d]imidazol-2-yl)butane-1,4-diamine Dihydrochloride]",256×/50,–,Enhanced Activity in P. aeruginosa (fold enhancement of antibiotic activity / EPI concentration) ([2]; EPI at 25 (μg)): 1×/25
"Cl.Cl.N=C(N)NCCC[C@H](N)CNC(=O)c1nc2cc(-c3ccc(F)cc3)ccc2[nH]1 [Example 14, (S)-5-((amino(iminio)methyl)amino)-1-(5-(4-fluorophenyl)-1H-benzo[d]imidazole-2-carboxamido) pentan-2-aminium Chloride]",2×/50,4×/12.5,–
"NCCC[C@@H](N)CNC(=O)c1nc2cc(-c3ccc(F)cc3)ccc2[nH]1 [Example 18, (R)—N-(2,5-diaminopentyl)-5-(4-fluorophenyl)-1H-benzo[d]imidazole-2-carboxamide Dihydrochloride]",–,–,Enhanced Activity in E. coli (fold enhancement of antibiotic activity / EPI concentration) ([1]; EPI at 6.25 (μg)): 2×/6.25
"NCCC[C@H](N)CNC(=O)c1nc2cc(-c3ccc(F)cc3)c(-c3ccc(F)cc3)cc2[nH]1 [Example 1, (S)—N-(2,5-diaminopentyl)-5,6-bis(4-fluorophenyl)-1H-benzo[d]imidazole-2-carboxamide Dihydrochloride]",–,–,Enhanced Activity in E. coli (fold enhancement of antibiotic activity / EPI concentration) ([1]; EPI at 6.25 (μg)): 512×/6.25
"Cl.Cl.NCCC(N)CNC(=O)c1nc2cc(-c3ccc(F)cc3)ccc2[nH]1 (stereo in doubt) [Example 12, (S)-4-(5-(4-fluorophenyl)-1H-benzo[d]imidazole-2-carboxamido) butane-1,3-diaminium Chloride]",8×/50,4×/12.5,–
"Cl.Cl.NCCC[C@H](N)CNC(=O)c1nc2ccc(-c3ccc(N)cc3)cc2[nH]1 [Example 25, (S)-6-(4-aminophenyl)-N-(2,5-diaminopentyl)-1H-benzo[d]imidazole-2-carboxamide Hydrogen Chloride Salt]",2×/50 μg,–,–
"N#Cc1cccc(-c2ccc3[nH]c(C(=O)NC[C@@H](N)CCCN)nc3c2)c1 [Example 7, (S)-5-(3-cyanophenyl)-N-(2,5-diaminopentyl)-1H-benzo[d]imidazole-2-carboxamide Dihydrochloride]",–,4×/12.5,–
"COc1ccc(-c2ccc3nc(C(=O)NC[C@@H](N)CCN)[nH]c3c2)cc1.Cl.Cl [Example 15, (S)-4-(5-(4-methoxyphenyl)-1H-benzo[d]imidazole-2-carboxamido)butane-1,3-diaminium Dihydrochloride]",2×/50,2×/12.5,–
"CC(C)C(N)CC[C@H](N)CNC(=O)c1nc2cc(-c3ccc(F)cc3)ccc2[nH]1 (stereo partly drawn) [Example 16, N-((2S)-2,5-diamino-6-methylheptyl)-5-(4-fluorophenyl)-1H-benzo[d]imidazole-2-carboxamide Dihydrochloride]",–,–,Enhanced Activity in E. coli (fold enhancement of antibiotic activity / EPI concentration) ([1]; EPI at 6.25 (μg)): 4×/6.25
"CC(C)(N)C1CN[C@H](CNC(=O)c2nc3ccc(-c4ccc(F)cc4)cc3[nH]2)C1 (stereo partly drawn) [Example 11, N-(((2S)-4-(2-aminopropan-2-yl)pyrrolidin-2-yl)methyl)-6-(4-fluorophenyl)-1H-benzo[d]imidazole-2-carboxamide Dihydrochloride]",–,2×/12.5,–
"NC[C@@H]1CN[C@H](CNC(=O)c2nc3cc(-c4ccc(F)cc4)ccc3[nH]2)C1 [Example 21, N-(((2S,4R)-4-(aminomethyl)pyrrolidin-2-yl)methyl)-5-(4-fluorophenyl)-1H-benzo[d]imidazole-2-carboxamide Dihydrochloride]",256×/50,–,Enhanced Activity in P. aeruginosa (fold enhancement of antibiotic activity / EPI concentration) ([2]; EPI at 25 (μg)): 8×/25
"Cl.Cl.Cn1c(C(=O)NC[C@@H](N)CCCN)nc2cc(-c3ccc(F)cc3)c(-c3ccc(F)cc3)cc21 [Example 30, (S)—N-(2,5-diaminopentyl)-5,6-bis(4-fluorophenyl)-1-methyl-1H-benzo[d]imidazole-2-carboxamidehydrogen Chloride Salt]",–,–,Enhanced Activity in E. coli (fold enhancement of antibiotic activity / EPI concentration) ([1]; EPI at 6.25 (μg)): 512×/6.25 μg
"Cl.Cl.NC[C@H](N)CNC(=O)c1nc2ccc(-c3ccc(F)cc3)cc2[nH]1 [Example 13, (S)-3-(5-(4-fluorophenyl)-1H-benzo[d]imidazole-2-carboxamido) propane-1,2-diaminium Dihydrochloride]",–,–,Enhanced Activity in P. aeruginosa (fold enhancement of antibiotic activity / EPI concentration) ([2]; EPI at 25 (μg)): 4×/25
"Cn1c(C(=O)NC[C@@H](N)CCCN)nc2cc(-c3ccc(F)cc3)cc(C(F)(F)F)c21 [Example 4, (S)—N-(2,5-diaminopentyl)-5-(4-fluorophenyl)-1-methyl-7-(trifluoromethyl)-1H-benzo[d]imidazole-2-carboxamide Dihydrochloride]",512×/50,8×/12.5,–
"NCCC[C@H](N)CNC(=O)c1nc2cc(-c3ccc(F)cc3)ccc2[nH]1 [Example 17, (S)—N-(2,5-diaminopentyl)-5-(4-fluorophenyl)-1H-benzo[d]imidazole-2-carboxamide Dihydrochloride]",256×/50,–,–
"NCCC[C@H](N)CNC(=O)c1nc2cc(Br)ccc2[nH]1 [Example 23, (S)-5-bromo-N-(2,5-diaminopentyl)-1H-benzo[d]imidazole-2-carboxamide Hydrogen Chloride Salt]",2×/50 μg,–,–
